Reference: patent US20010006667A1, “USE AND COMPOSITION OF AN ANTI-SEXUALLY TRANSMITTED DISEASES FORMULATION” (priority 1994, published 2001)

Tested on: HIV LAV1 BRU retrovirus clone
Assay: Syncytia formation in HT4LacZ cells infected with an HIV viral suspension pre-mixed with test substance
Assay type: cell-based
Protocol: The formulations were prepared according to the description discussed above, except that the F-Po was prepared with about 2% polycarbophil, no N-9 and about a 1% concentration of Carbomer 934P, rather than 0.5%, and the difference (2%) was made up with additional water.
A viral blank was used as control, and AZT was used for a positive control. Each formulation was set up as an aqueous suspension of a particular concentration. 500 μl. aliquots of viral suspension were separately mixed with 50 ,μl. of each of the test solutions. After 30 minutes, 55 μl. of each of these mixtures were tested directly on HT4LacZ cells in a well also containing DEAE dextran. During the culturing period, the virus supplies the tat gene missing in HT4LacZ cells, leading to LacZ gene transactivation coding for β-galactosidase, indicated by a histochemical coloration. After 72 hours of culturing, infection is stopped by addition of a fixator for ten minutes. After two PBS washes, the colorant is added for ninety minutes. After syncytia (giant multi-nucleated cells, formed by many cells fusing together when infected with HIV) outbreak, the colorant is replaced with water. Observation is performed with an optical microscope, yielding the following results in Table 1: […]

Compound	Avg. # Syncytia per well (final conc. 10^−5M)	Percent Reduction (of syncytia vs viral reference) (final conc. 10^−5M) [%]	Total # Syncytia (final conc. 10^−5M)	viral infection remaining, % of that exhibited by the HIV viral suspension (FIG. 1) (0.1 μg/ml) [%]	viral infection remaining, % of that exhibited by the HIV viral suspension (FIG. 1) (1 μg/ml) [%]	Avg. # Syncytia per well (final conc. 0.10 μg/ml)	Percent Reduction (of syncytia vs viral reference) (final conc. 0.10 μg/ml) [%]	Total # Syncytia (final conc. 0.10 μg/ml)	Avg. # Syncytia per well (final conc. 1.0 μg/ml)	Percent Reduction (of syncytia vs viral reference) (final conc. 1.0 μg/ml) [%]	Total # Syncytia (final conc. 1.0 μg/ml)
Cc1cn([C@H]2C[C@H](N=[N+]=[N-])[C@@H](CO)O2)c(=O)[nH]c1=O [AZT]	0	100	0								
nonoxynol-9 [N-9]				72	36	11.5	28	46	5.75	64	23
